Values quoted from earlier work as cited in US20260216071A1, “NANOPARTICULATE FORMULATION” (NEWIMMUNE II, LLC, priority 2022, published 2026).

CCCCc1nc(Cl)c(CO)n1Cc1ccc(-c2ccccc2-c2nn[nH]n2)cc1 [Losartan, (2-butyl-4-chloro-1-{[2′-(1H-tetrazol-5-yl)biphenyl-4-yl]methyl}-1H-imidazol-5-yl) methanol]
absorption following oral administration: well absorbed
